Data taken from US20060052314A1, “Pharmaceutical combination” (priority 2002, published 2006).
Counter-ions that a name gives are not always drawn.

Experiments:
[1] = Test G: conversion to active inhibitor in liver microsomes from humans; assay type: in vitro ADME
Description: (§1) By “prodrug of a thrombin inhibitor”, we include compounds that form a thrombin inhibitor, in an experimentally-detectable amount, and within a predetermined time (e.g. about 1 hour), following oral or parenteral administration (see, for example, Test E below) or, alternatively, following incubation in the presence of liver microsomes (see, for example, Test G below).

[2] = Test G: conversion to active inhibitor in liver microsomes from rats; assay type: in vitro ADME
Description: as §1

thrombin = thrombin (Homo sapiens, UniProt P00734); assay: Test A: IC50TT; assay type: biochemical

| Compound | conversion to the corresponding active inhibitor (free amidine) [1] | conversion to the corresponding active inhibitor (free amidine) [2] | IC50 (thrombin) [nM] | melting point [°C] |
| --- | --- | --- | --- | --- |
| CON=C(N)c1ccc(CNC(=O)[C@@H]2CCN2C(=O)[C@H](O)c2cc(Cl)cc(OCC(F)F)c2)cc1 [Example 18, Ph(3-Cl)(5-OCH2CHF2)—(R)CH(OH)C(O)-Aze-Pab(OMe)] | converted to the corresponding active inhibitor (free amidine) | converted to the corresponding active inhibitor (free amidine) |  |  |
| Ph(3-Br)(5-OCHF2)—(R)CH(OH)C(O)-Aze-Pab(OMe) [Example 29] | converted to the corresponding active inhibitor (free amidine) | converted to the corresponding active inhibitor (free amidine) |  |  |
| CO/N=C(\N)c1cc(F)c(CNC(=O)[C@@H]2CCN2C(=O)[C@H](O)c2cc(Cl)cc(OC(F)F)c2)c(F)c1 [Example 40, Ph(3-Cl)(5-OCHF2)—(R)CH(OH)C(O)-Aze-Pab(2,6-diF)(OMe)] | converted to the corresponding active inhibitor (free amidine) | converted to the corresponding active inhibitor (free amidine) |  |  |
| N=C(N)c1ccc(CNC(=O)[C@@H]2CCN2C(=O)[C@H](O)c2cc(Cl)cc(OC(F)F)c2)cc1F [Example 38, Ph(3-Cl)(5-OCHF2)—(R)CH(OH)C(O)-Aze-Pab(3-F)] |  |  | < 150 |  |
| CON=C(N)c1ccc(CNC(=O)[C@@H]2CCN2C(=O)[C@H](O)c2cc(Cl)cc(OCC(F)(F)F)c2)cc1 [Example 16, Ph(3-Cl)(5-OCH2CF3)—(R)CH(OH)C(O)-Aze-Pab(OMe)] | converted to the corresponding active inhibitor (free amidine) | converted to the corresponding active inhibitor (free amidine) |  |  |
| CO/N=C(\N)c1cnc(CNC(=O)[C@@H]2CCN2C(=O)[C@H](O)c2cc(Cl)cc(OC(F)F)c2)nc1 [Example 37, Ph(3-Cl)(5-OCHF2)—(R)CH(OH)C(O)-Aze-NH—CH2-((5-methoxyamidino)-2-pyrimidinyl)] | converted to the corresponding active inhibitor (free amidine) | converted to the corresponding active inhibitor (free amidine) |  |  |
| CON=C(N)c1ccc(CNC(=O)[C@@H]2CCN2C(=O)[C@H](O)c2cc(F)cc(OC(F)F)c2)cc1 [Example 26, Ph(3-F)(5-OCHF2)—(R)CH(OH)C(O)-Aze-Pab(OMe)] | converted to the corresponding active inhibitor (free amidine) | converted to the corresponding active inhibitor (free amidine) |  |  |
| CON=C(N)c1ccc(CNC(=O)[C@@H]2CCCN2C(=O)[C@H](O)c2cc(Cl)cc(OC(F)F)c2)cc1 [Example 33, Ph(3-Cl)(5-OCHF2)—(R)CH(OH)—C(O)-Pro-Pab(OMe)] | converted to the corresponding active inhibitor (free amidine) | converted to the corresponding active inhibitor (free amidine) |  |  |
| N=C(N)c1cc(F)c(CNC(=O)[C@@H]2CCN2C(=O)[C@H](O)c2cc(Cl)cc(OC(F)F)c2)c(F)c1 [Example 39, Ph(3-Cl)(5-OCHF2)—(R)CH(OH)C(O)-Aze-Pab(2.6-diF)] |  |  | < 20 |  |
| CON=C(N)c1ccc(CNC(=O)[C@@H]2CCN2C(=O)[C@H](O)c2cc(Cl)cc(OCCF)c2)cc1 [Example 22, Ph(3-Cl)(5-OCH2CH2F)—(R)CH(OH)C(O)-Aze-Pab(OMe)] | converted to the corresponding active inhibitor (free amidine) | converted to the corresponding active inhibitor (free amidine) |  |  |
| NC(=NO)c1ccc(CNC(=O)[C@@H]2CCN2C(=O)[C@H](O)c2cc(Cl)cc(OC(F)F)c2)cc1 [Example 2, Ph(3-Cl)(5-OCHF2)—(R)CH(OH)C(O)-Aze-Pab(OH)] | converted to the corresponding active inhibitor (free amidine) | converted to the corresponding active inhibitor (free amidine) |  |  |
| N=C(N)c1cnc(CNC(=O)[C@@H]2CCN2C(=O)[C@H](O)c2cc(Cl)cc(OC(F)F)c2)nc1 [Example 36, Ph(3-Cl)(5-OCHF2)—(R)CH(OH)C(O)-Aze-NH—CH2-((5-amidino)-2-pyrimidinyl)] |  |  | < 3500 |  |
| CON=C(N)c1ccc(CNC(=O)[C@@H]2CCN2C(=O)[C@H](O)c2cc(Cl)cc(OCF)c2)cc1 [Example 20, Ph(3-Cl)(5-OCH2F)—(R)CH(OH)C(O)-Aze-Pab(OMe)] | converted to the corresponding active inhibitor (free amidine) | converted to the corresponding active inhibitor (free amidine) |  |  |
| CON=C(N)c1ccc(CNC(=O)[C@@H]2CCN2C(=O)[C@H](CO)c2cc(Cl)cc(OC(F)(F)F)c2)cc1 [Example 11, Ph(3-Cl)(5-OCF3)—(S)CH(CH2OH)C(O)-Aze-Pab(OMe)] | converted to the corresponding active inhibitor (free amidine) | converted to the corresponding active inhibitor (free amidine) |  |  |
| CON=C(N)c1ccc(CNC(=O)[C@@H]2CCN2C(=O)[C@H](O)c2cc(Cl)cc(OC(F)F)c2)cc1 [Example 12, Ph(3-Cl)(5-OCHF2)—(R)CH(OH)C(O)-Aze-Pab(OMe)] | converted to the corresponding active inhibitor (free amidine) | converted to the corresponding active inhibitor (free amidine) |  |  |
| N=C(N)c1ccc(CNC(=O)[C@@H]2CCN2C(=O)[C@H](O)c2cc(Cl)cc(OC(F)F)c2)cn1 [Example 34, Ph(3-Cl)(5-OCHF2)—(R)CH(OH)C(O)-Aze-NH—CH2-((2-amidino)-5-pyridinyl)] |  |  | < 20 |  |
| N=C(N)c1cnc(CNC(=O)[C@@H]2CCN2C(=O)[C@H](O)c2cc(Cl)cc(OC(F)F)c2)nc1 (as salt: TFA) [Example 36, Ph(3-Cl)(5-OCHF2)—(R)CH(OH)C(O)-Aze-NH—CH2-((5-amidino)-2-pyrimidinyl)] |  |  |  | 86 to 87 |
| Ph(3-Cl)(5-OCHF2)—(R)CH(OH)C(O)-Aze-Pab(OcBu) [Example 1] | converted to the corresponding active inhibitor (free amidine) | converted to the corresponding active inhibitor (free amidine) |  |  |
| CON=C(N)c1ccc(CNC(=O)[C@@H]2CCN2C(=O)[C@H](O)c2cc(Cl)cc(OC(F)(F)F)c2)cc1 [Example 7, Ph(3-Cl)(5-OCF3)—(R)CH(OH)C(O)-Aze-Pab(OMe)] | converted to the corresponding active inhibitor (free amidine) | converted to the corresponding active inhibitor (free amidine) |  |  |
| CON=C(N)c1ccc(CNC(=O)[C@@H]2CCN2C(=O)[C@H](O)c2cc(Cl)cc(OC(CF)CF)c2)cc1 [Example 24, Ph(3-Cl)(5-OCH(CH2F)2)—(R)CH(OH)C(O)-Aze-Pab(OMe)] | converted to the corresponding active inhibitor (free amidine) | converted to the corresponding active inhibitor (free amidine) |  |  |
| CC(C)ON=C(N)c1ccc(CNC(=O)[C@@H]2CCN2C(=O)[C@H](O)c2cc(Cl)cc(OC(F)F)c2)cc1 [Example 45, Ph(3-Cl)(5-OCHF2)—(R)CH(OH)C(O)-Aze-Pab(OiPr)] | converted to the corresponding active inhibitor (free amidine) | converted to the corresponding active inhibitor (free amidine) |  |  |
| CCON=C(N)c1ccc(CNC(=O)[C@@H]2CCN2C(=O)[C@H](O)c2cc(Cl)cc(OC(F)F)c2)cc1 [Example 43, Ph(3-Cl)(5-OCHF2)—(R)CH(OH)C(O)-Aze-Pab(OEt)] | converted to the corresponding active inhibitor (free amidine) | converted to the corresponding active inhibitor (free amidine) |  |  |
| N=C(N)c1cc(F)c(CNC(=O)[C@@H]2CCN2C(=O)[C@H](O)c2cc(Cl)cc(OC(F)F)c2)cc1F [Example 41, Ph(3-Cl)(5-OCHF2)—(R)CH(OH)C(O)-Aze-Pab(2,5-diF)] |  |  | < 150 |  |
